Entries after “also recorded” stand apart in the source; their conditions may differ.
Tests used:
[1] = system: A375M melanoma cells; test: A375M transendothelial migration assay; assay type: cell-based, human; conditions: for lowest concentration with significant effects on tumor cell transmigration / melanoma / tumor cell transmigration with free radical scavengers and anti-oxidants (in words): A375M; for melanoma / tumor cell transmigration with free radical scavengers and anti-oxidants (in words): indicated concentrations, vs. Scr; for inhibition of melanoma cell TEM compared with Tat-KLC1c peptide: at 10 mM, vs optimal concentration of Tat-KLC1c peptide
Protocol: (§1) FIG. 16. […] Data are mean±SD of 6 replicates. *p<0.005 vs. Scr.
FIG. 19. […] A375M transendothelial migration assays were carried out in the presence of Tat-peptides or the indicated concentrations of Trolox or N-acetylcysteine. Data are mean±SD of ≥3 replicates for each condition. *p<0.01 for all inhibitors vs. Scr.

[2] = system: A375 human melanoma cells; test: Transwell filter migration of tumor cells toward serum-containing medium (A375); assay type: cell-based; conditions: 100 nM peptide, 12 hours, 8 μM pore size Transwell
Protocol: (§2) FIG. 8. […] 1×10^4 A375 human melanoma cells or 1×10^4 B16F10 melanoma cells were resuspended in serum-free medium and placed in the upper chamber of Transwell filters ([…]) and allowed to migrate in response to serum-containing medium in the bottom chamber in the presence of 100 nM Tat-Scr, Tat-KLC1c or no additives. The total number of tumor cells in the bottom well 12 hours later was enumerated. Data are mean±S.D. for four replicates of each sample.

[3] = system: B16F10 melanoma cells; test: melanoma cell extravasation in lung in vivo after tail vein injection; set-up: species or system mouse; conditions: for visualized tumor cells that had transmigrated: C57Bl/6 mice, peptide 1 hour prior to CFSE-labeled B16F10 via tail vein, sacrificed six hours later
Protocol: FIG. 11. Visualizing melanoma cell extravasation in vivo. Single XY plane from confocal image of CFSE-labeled B16F10 cells in Tat-Scr treated mouse lung 6 hr. after i.v. injection of 10^6 tumor cells. Two tumor cells (arrows) have migrated out of vasculature while another one (arrowhead) remains inside the vessel.
FIG. 12. […] Quantification of block by Tat-KLC1c (Mean±S.D) * p<0.01.
C57Bl/6 mice received KLC1c or scrambled peptide 1 hour prior to receiving carboxyfluorescein (CFSE)-labeled B16F10 melanoma cells via tail vein. They were sacrificed six hours later so that data would reflect the effects on extravasation per se rather than survival or growth (Ref. B10; herein incorporated by reference in its entirety). Immediately prior to sacrifice a fluorescent anti-PECAM antibody was injected i.v. to stain vasculature. Lungs were inflated with 4% paraformaldehyde (PFA) and fixed overnight in PFA, then cryopreserved in sucrose. 100 μm thick frozen sections were cut and examined by spinning disc confocal microscopy with images taken every 1 μm of specimen depth. 30% of visualized tumor cells had transmigrated in the mice receiving scrambled peptide, whereas only ˜9% had transmigrated in mice receiving Tat-KLC1c peptide—a 70% reduction (FIGS. 11,12). […] In a separate experiment, age- and sex-matched C57Bl/6 mice syngeneic to the tumor were randomized to receive Tat-Scr or Tat-KLC1c parenterally at a concentration calculated to achieve 0.1 μM in vivo 1 h. before and 18 h. after receiving 1×10^6 syngeneic B16F10 melanoma cells in 100 μl via tail vein. Lung metastases were enumerated 14 days later under a dissecting microscope. The Tat-KLC1c group had over 90% fewer (FIG. 13, p=0.00204). […] Even though Tat-KLC1c blocks about ⅓ (in vitro) to ⅔ (in vivo) of melanoma extravasation events, the number of metastatic colonies that grow out are disproportionately lower.

[4] = system: neutrophils; test: intravital confocal microscopy of neutrophil transmigration in IL-1β-inflamed cremaster muscle; assay type: in vivo; conditions: anesthetized mouse; for neutrophil extravasation (cumulative transmigration): postcapillary venules, response to IL-1β, after injection of peptide
Source text: FIG. 4. TAT-KLC1c blocks TEM in vivo. In the inflamed cremaster muscle of an anesthetized mouse, fluorescent neutrophils were observed by intravital spinning disc confocal microscopy to transmigrate steadily from postcapillary venules in response to IL-1β.

[5] = system: Human umbilical vein endothelial cells; test: in vitro transendothelial migration (TEM) of human monocytes across endothelial cell monolayers; assay type: cell-based; conditions: endothelial cells incubated 30 minutes with 0.01 μM or 0.1 μM peptide, washed, one hour with human monocytes; compared to untreated
Protocol: FIG. 3. Blocking Kinesin Light Chain 1c function via TAT-KLC1c peptide inhibits transmigration. Human umbilical vein endothelial cells. Endothelial cells were incubated for 30 minutes with either 0 μM (untreated), 0.01 μM, or 0.1 μM TAT-KLC1c peptide (or scrambled TAT-peptide) at 37° C., then washed prior to a one hour incubation with human monocytes. The cells were then washed, fixed, and the percentage of cells transmigrated (% TEM) was quantified. […] Data shown are mean±SEM for 3 experiments. * p<0.01 compared to untreated.
as §1
(§3) Tumor cells that transmigrate using the LBRC do so without destroying the endothelial cell monolayer. […] The Tat-KLC1c peptide has no effect on the ability of tumor cells to move per se (FIG. 8), nor on tumor cell viability or growth (FIG. 9).

[6] = system: B16F10 melanoma cells; test: Transwell filter migration of tumor cells toward serum-containing medium (B16F10); assay type: cell-based, mouse; conditions: 100 nM peptide, 12 hours, 8 μM pore size Transwell
Protocol: as §2

[7] = system: A375 human melanoma cells; test: tumor cell TEM assay, A375 melanoma cells across EC (HUVEC) monolayers; assay type: cell-based; conditions: for melanoma cell TEM in vitro (in words): human melanoma cells across human EC monolayer; for melanoma cell transmigration across endothelial cell monolayers, prostaglandin receptor inhibitors: HUVEC pretreated 1 hour then washed, A375 cells, inhibitor used at 10× its IC50
Protocol: FIG. 7. Tat-KLC1c peptide blocks tumor cell TEM. A375 human melanoma cells were allowed to transmigrate for 2 hours across EC monolayers pre-incubated (then washed extensively) with Tat-KLC1c or Tat-Scr. The 50% block in TEM is representative of at least 6 independent experiments.
FIG. 10. Platelets modestly increase melanoma cell migration through an LBRC-dependent mechanism. The tumor cell TEM assay was carried out in the presence or absence of human platelets, which were added to the tumor cells at the time of peptide addition and immediately prior to addition to the endothelial cell monolayer. Transmigration proceeded for 2 hours.
FIG. 17. […] HUVEC monolayers were pretreated with 100 nM Tat peptides or the indicated doses of PF-04418948 (EP2 inhibitor) or AAT008 (EP4 antagonist) for 1 hour then washed exten-sively before adding A375 cells. Transmigration proceeded for 2 hours.
FIG. 18. Optimal concentrations of Tat-KLC1c peptide and EP4 antagonist are not additive. Transmigration assays as in FIG. 16 with 100 μM Tat-peptides, 100 nM AAT-008, or both. Mean±S.D. of 6 replicates for each condition. * p<0.0004 vs. Scr; NS vs each other.
as §3

[8] = system: PMN; test: croton oil acute dermatitis of ear skin, PMN transmigration; assay type: in vivo, mouse; conditions: i.v. to achieve 0.1 μM in blood, one hour before croton oil; ear skin examined six hours later
Protocol: FIG. 5. TAT-KLC1c blocks TEM in vivo. Mice received TAT-Scr or TAT-KLC1c i.v. at a concentration to achieve 0.1 μM in blood. One hour later, croton oil was applied to mouse ear skin to induce acute dermatitis. Six hours later mice were sacrificed and ear skin examined in whole mount by confocal microscopy. Representative images are shown. In mice receiving Tat-Scr, a mean of 70% of PMN exited the vessels, while in mice receiving Tat-KLC1c, transmigration was decreased to 12%.

[9] = system: B16F10 melanoma cells; test: growth of B16F10 melanoma cells in culture over two weeks; assay type: cell-based, mouse; conditions: 100 nM peptide, two-week period
Protocol: FIG. 9. […] Melanoma cells were plated at a density of 1×10^5/ml on 80 mm plates with 100 nM Tat-Scr or Tat-KLC1c. Cells were trypsinized and counted on the indicated days, diluted and 4×10^6 viable cells re-plated in fresh peptide. Total cells in the culture are shown.

[10] = system: B16F10 melanoma cells; test: lung metastatic colony formation after tail vein injection of B16F10 cells; assay type: in vivo, mouse
Protocol: Age- and sex-matched C57Bl/6 mice were injected with Tat-Scr (Scr) or Tat-KLC1c (KLC1c) 1 hr before and 18 hr after injection of 10^6 B16F10 melanoma cells via tail vein. 14 days later lungs were inflated with formalin, and metastases counted. (A) Representative gross photos of lungs from mice that received Tat-Scr (top) and Tat-KLC1c (bottom). Arrows point to some of the metastases. (B) Graphical representation of results. Dots are values for individual mice. (TNTC)=too numerous to count. Lines show mean±S.D., p=0.00204 by ANOVA not including the TNTC data.
C57Bl/6 mice received KLC1c or scrambled peptide 1 hour prior to receiving carboxyfluorescein (CFSE)-labeled B16F10 melanoma cells via tail vein. They were sacrificed six hours later so that data would reflect the effects on extravasation per se rather than survival or growth (Ref. B10; herein incorporated by reference in its entirety). Immediately prior to sacrifice a fluorescent anti-PECAM antibody was injected i.v. to stain vasculature. […] In a separate experiment, age- and sex-matched C57Bl/6 mice syngeneic to the tumor were randomized to receive Tat-Scr or Tat-KLC1c parenterally at a concentration calculated to achieve 0.1 μM in vivo 1 h. before and 18 h. after receiving 1×10^6 syngeneic B16F10 melanoma cells in 100 μl via tail vein. […]

In the case of `Cc1c(C)c2c(c(C)c1O)CCC(C)(C(=O)O)O2` (stereo not shown) [Trolox, 6-hydroxy-2,5,7,8-tetramethylchroman-2-carboxylic acid], the “lowest concentration with significant effects on tumor cell transmigration” value [1] was 100 µM, the “melanoma / tumor cell transmigration with free radical scavengers and anti-oxidants (in words)” value [1] was “reduces tumor cell transmigration in a dose-dependent manner; also recorded: inhibit melanoma transmigration” and the “inhibition of melanoma cell TEM compared with Tat-KLC1c peptide” value [1] was “as effectively as the optimal concentration of Tat-KLC1c peptide”.

For “Tat-Scr: negative control peptide contains the same ten amino acids in a random order (scrambled, Scr); SEQ ID NO: 9 (YGRKKRRQRRRGGGGKLNKMVMLR) [reference compound]”, the “tumor cell migration, total number of tumor cells in the bottom well” value (“tumor cell migration, total number” below) [2] was “no significant differences”, the “visualized tumor cells that had transmigrated” value ([3]; lung) was 30% and the “neutrophil extravasation (cumulative transmigration)” value [4] was “no effect”. The “percentage of cells transmigrated (% TEM)” value [5] was “not”, the “tumor cell migration, total number” value [6] was “no significant differences” and the “melanoma cell TEM in vitro (in words)” value [7] was “no effect”. The “mean PMN exited the vessels (transmigration)” value [8] was 70%.

With “Tat-KLC1c: 11-amino acid basic region from HIV Tat protein, glycine tripeptide linker, C-terminal decapeptide of KLC1c (MRKMKLGLVN); SEQ ID NO: 8 (YGRKKRRQRRRGGGMRKMKLGLVN)” the “tumor cell viability or growth (total cells in the culture)” value [9] was “no effect; also recorded: does not affect growth”, the “tumor cell migration, total number” value [2] was “no direct effect” and the “visualized tumor cells that had transmigrated” value ([3]; lung) was roughly 9%. For the same molecule, the “melanoma extravasation (in words)” value ([3]; FIG. 12 quantification) was “blocks melanoma extravasation”, the “reduction of transmigrated tumor cells” value ([3]; Tat-KLC1c vs scrambled peptide, six hours, lung) was 70% and the “melanoma extravasation events blocked (in vivo)” value ([3]; in vivo) was “⅔”. The “time after injection until cumulative transmigration began to plateau” value ([4]; IL-1β-inflamed cremaster) was no more than 10 min, the “neutrophil extravasation (cumulative transmigration)” value [4] was “markedly inhibited” and the “fewer lung metastases than Tat-Scr group” value ([10]; 0.1 μM in vivo, 1 h before and 18 h after 1×10^6 B16F10 cells via tail vein, 14 days later) was “over 90%”. For the same molecule, the “metastatic colony formation (in words)” value ([10]; C57Bl/6 mice, B16F10, 14 days) was “significantly blocked the establishment of metastatic colonies; also recorded: prevents metastatic colony formation”, the “percentage of cells transmigrated (% TEM)” value [5] was “significantly decreased TEM” and the “tumor cell migration, total number” value [6] was “no direct effect”. The “block in TEM” value ([7]; EC monolayers pre-incubated with peptide then washed, 2 hours, vs Tat-Scr, representative of at least 6 experiments) was 50%, the “reduction of tumor cell TEM” value ([7]; FIG. 10 experiment, without platelets, 2 hours, vs. scr) was 33% and the “melanoma cell TEM in vitro (in words)” value [7] was “significantly blocks”. For the same molecule, the “additional TEM in the presence of platelets” value ([7]; human platelets added to tumor cells, 2 hours) was “blocked; also recorded: down to the same level”, the “melanoma extravasation events blocked (in vitro)” value ([7]; in vitro) was “about ⅓” and the “mean PMN exited the vessels (transmigration)” value [8] was 12%.

In the case of `C[C@H](NC(=O)c1cc(Cl)cnc1Oc1cccc(F)c1)c1ccc(C(=O)O)cc1` [AAT-008, reference compound], the “melanoma cell transmigration across endothelial cell monolayers, prostaglandin receptor inhibitors” value ([7]; 2 hours) was “block melanoma cell transmigration”, the “melanoma cell transmigration across endothelial cell monolayers, prostaglandin receptor inhibitors” value ([7]; 2 hours, listed as AAT008) was “blocks melanoma transmigration” and the “block to melanoma cell transmigration compared with Tat-KLC1c” value ([7]; vs Tat-KLC1c at its optimal concentration) was “as effective as using Tat-KLC1c at its optimal concentration”.

In the case of `CC(=O)N[C@@H](CS)C(=O)O` [N-acetylcysteine], the “lowest concentration with significant effects on tumor cell transmigration” value [1] was 100 µM, the “melanoma / tumor cell transmigration with free radical scavengers and anti-oxidants (in words)” value [1] was “reduces tumor cell transmigration in a dose-dependent manner; also recorded: inhibit melanoma transmigration” and the “inhibition of melanoma cell TEM compared with Tat-KLC1c peptide” value [1] was “as effectively as the optimal concentration of Tat-KLC1c peptide”.

From patent US11304988B2, “Inhibiting tumor cell migration by inhibition of kinesin light chain 1, variant 1 (KLC1C)” (Northwestern University, priority 2018, dated 2022)
